What was measured:
Tetranychus urticae = Tetranychus urticae spray test, OP-resistant (TETRUR); type: in vivo; settings: after 6 days; for pest or weed control at 500 g/ha: Tetranychus urticae, 144 h, read-out: efficacy
Outline: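 Bean leaf discs infested with all stages of an OP-resistant Tetranychus urticae strain sprayed with compound in acetone/DMF with alkylaryl polyglycol ether emulsifier, diluted in water. Efficacy in % scored after 6 days; 100% means all mites killed.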

[1] = log P by HPLC (OECD Guideline 117), method [a] acidic range; type: physicochemical; settings: for chromatographic logP: reversed-phase C18 HPLC column, acidic range; for logP[a]: HPLC, method [a] acidic range
Method: (§1) The log P values were determined analogously to OECD Guideline 117 (EC Directive 92/69/EEC) by HPLC (high-performance liquid chromatography) using reversed-phase columns (C 18), by the following methods:
[a] The LC-MS determination in the acidic range is effected at pH 2.7 with 0.1% aqueous formic acid and acetonitrile (contains 0.1% formic acid) as eluents; linear gradient from 10% acetonitrile to 95% acetonitrile.

[2] = log P by HPLC (OECD Guideline 117), method [b] neutral range; type: physicochemical; settings: HPLC; for chromatographic logP: reversed-phase C18 HPLC column, neutral range, pH 7.8; for logP[b]: method [b] neutral range
Method: as §1
[b] The LC-MS determination in the neutral range is effected at pH 7.8 with 0.001 molar aqueous ammonium hydrogencarbonate solution and acetonitrile as eluents; linear gradient from 10% acetonitrile to 95% acetonitrile.

[3] = pH 2.7, HPLC method [a], read-out: logP[a]
[4] = pH 2.7, HPLC, pH 2.7, read-out: log P[a]

Row | Compound | pest or weed control at 500 g/ha (Tetranychus urticae; application rate of 500 g/ha) [%] | chromatographic logP [1, 3] | chromatographic logP [1, 4] | chromatographic logP [2] | efficacy (Tetranychus urticae; application rate of 500 g/ha) [%] | logP[a] [1] | logP[b] [2] | efficacy (Tetranychus urticae; application rate of 100 g/ha) [%]
1 | CCn1ccn(-c2cc([S+]([O-])CC(F)(F)F)c(C)cc2F)c1=O (stereo not drawn) [Example 487, 1-Ethyl-3-{2-fluoro-4-methyl-5-[(2,2,2-trifluoroethyl)sulphinyl]phenyl}-1,3-dihydro-2H-imidazol-2-one] | 90 | 1.83 | 1.83 | 1.81 | – | – | – | –
2 | Cc1cc(Cl)c(-n2nc(OCC(F)(F)F)n(C3CC3)c2=O)cc1SCC(F)(F)F [Example 187] | – | – | – | – | 90 | 3.98 | 3.93 | –
3 | CNn1c(N(C)C)nn(-c2cc(SCC(F)(F)F)c(C)cc2F)c1=O [Example 216] | – | – | – | – | 100 | 3.03 | 2.99 | –
4 | Cc1cc(F)c(-n2nc(CCOC(C)C)n(C3CC3)c2=O)cc1SCC(F)(F)F [Example 359] | – | – | – | – | 100 | 3.63 | 3.66 | –
5 | Cc1cc(F)c(-n2nc(SC(C)C)n(C)c2=O)cc1SCC(F)(F)F [Example 276] | – | – | – | – | 100 | 3.86 | 3.80 | –
6 | Cc1cc(C)c(-n2nc(C(F)(F)F)n(C(C)(C)C)c2=O)cc1SCC(F)(F)F [Example 49] | – | – | – | – | 90 | 4.95 | 4.88 | –
7 | C=CCn1c(OCC(F)(F)F)nn(-c2cc(SCC(F)(F)F)c(C)cc2F)c1=O [Example 399] | – | – | – | – | 90 | 3.94 | 3.89 | –
8 | Cc1cc(F)c(-n2c(C)c(C)sc2=NCC(F)(F)F)cc1SCC(F)(F)F [Example 343, 2,2,2-Trifluoro-N-[3-{2-fluoro-4-methyl-5-[(2,2,2-trifluoroethyl)sulphanyl]phenyl}-4,5-dimethyl-1,3-thiazol-2(3H)-ylidene]ethanamine] | 100 | 3.02 | 3.02 | 4.91 | – | – | – | –
9 | CNn1c(N(C)C)nn(-c2cc([S+]([O-])CC(F)(F)F)c(C)cc2F)c1=O (stereo not drawn) [Example 217] | – | – | – | – | 90 | 2.02 | 1.98 | –
10 | Cc1cc(F)c(-n2nc(SCC(F)(F)F)n(C)c2=O)cc1SCC(F)(F)F [Example 281] | – | – | – | – | 100 | 3.53 | 3.45 | –
11 | Cc1cc(F)c(-n2nc(C3CC3)n(C)c2=O)cc1SCC(F)(F)F [Example 346] | – | – | – | – | 90 | 2.97 | 2.92 | –
12 | Cc1cc(F)c(-n2nc([S+]([O-])C(C)C)n(C3CC3)c2=O)cc1[S+]([O-])CC(F)(F)F (stereo not drawn) [Example 239] | – | – | – | – | 100 | 2.08 | 2.03 | –
13 | CCn1ccn(-c2cc(SCC(F)(F)F)c(C)cc2F)c1=O [Example 486, 1-Ethyl-3-{2-fluoro-4-methyl-5-[(2,2,2-trifluoroethyl)sulphanyl]phenyl}-1,3-dihydro-2H-imidazol-2-one] | 100 | 2.84 | 2.84 | 2.79 | – | – | – | –
14 | Cc1cc(Cl)c(-n2nc(OCC(C)(C)C)n(C3CC3)c2=O)cc1SCC(F)(F)F [Example 396] | – | – | – | – | 100 | 4.92 | 4.85 | –
15 | Cc1cc(F)c(-n2ccn(C(C)(C)C)c2=O)cc1[S+]([O-])CC(F)(F)F (stereo not drawn) [Example 489] | – | – | – | – | 90 | 2.50 | 2.47 | –
16 | Cc1cc(F)c(-n2ncn(C(C)(C)C)c2=O)cc1SCC(F)(F)F [Example 367] | – | – | – | – | 100 | 3.27 | 3.23 | –
17 | Cc1cc(F)c(-n2nc(C3CC3)n(C(C)C)c2=S)cc1SCC(F)(F)F [Example 498] | – | – | – | – | 100 | 4.24 | 4.14 | –
18 | COCCc1nn(-c2cc(SCC(F)(F)F)c(C)cc2F)c(=O)n1C1CC1 [Example 75] | – | – | – | – | 100 | 2.97 | 2.89 | –
19 | Cc1cc(F)c(-n2nc(C3CC3)n(C3CC3)c2=O)cc1[S+]([O-])CC(F)(F)F (racemic) [Example 66] | – | – | – | – | 100 | 2.31 | 2.33 | –
20 | COC1=CC(=O)N(c2cc([S+]([O-])CC(F)(F)F)c(C)cc2C)C1 (racemic) [Example 313] | – | – | – | – | 90 | 1.83 | 1.83 | –
21 | CCCCc1nn(-c2cc(SCC(F)(F)F)c(C)cc2F)c(=O)n1C1CC1 [Example 71] | – | – | – | – | 90 | 4.05 | 3.96 | –
22 | Cc1cc(F)c(-n2nc(C)n(C3CC3)c2=O)cc1SCC(F)(F)F [Example 42] | – | – | – | – | 90 | 2.76 | 2.73 | –

Row | Compound | pest or weed control at 500 g/ha (Tetranychus urticae; application rate of 500 g/ha) [%] | chromatographic logP [1, 3] | chromatographic logP [1, 4] | chromatographic logP [2] | efficacy (Tetranychus urticae; application rate of 500 g/ha) [%] | logP[a] [1] | logP[b] [2] | efficacy (Tetranychus urticae; application rate of 100 g/ha) [%]
23 | Cc1cc(F)c(-n2ncn(C(C)(C)C)c2=O)cc1[S+]([O-])CC(F)(F)F (stereo not drawn) [Example 369] | – | – | – | – | 100 | 2.21 | 2.16 | –
24 | Cc1cc(F)c(-n2nc(SC(F)(F)F)n(C3CC3)c2=O)cc1SCC(F)(F)F [Example 263] | – | – | – | – | – | 4.08 | 4.01 | 100
25 | CCSc1nn(-c2cc([S+]([O-])CC(F)(F)F)c(C)cc2F)c(=O)n1C (stereo not drawn) [Example 274, 5-(Ethylsulphanyl)-2-{2-fluoro-4-methyl-5-[(2,2,2-trifluoroethyl)sulphinyl]phenyl}-4-methyl-2,4-dihydro-3H-1,2,4-triazol-3-one] | 100 | 2.42 | 2.42 | 2.36 | – | – | – | –
26 | Cc1cc(F)c(-n2nc(N(C)C)n(C3CC3)c2=O)cc1[S+]([O-])CC(F)(F)F (racemic) [Example 194] | – | – | – | – | 100 | 2.17 | 2.12 | –
27 | CCCc1nn(-c2cc(SCC(F)(F)F)c(C)cc2F)c(=O)o1 [Example 460] | – | – | – | – | 100 | 3.94 | 3.92 | –
28 | O=c1n(-c2ccc(Br)c(SCC(F)(F)F)c2)nc(OCC(F)(F)F)n1C1CC1 [Example 378] | – | – | – | – | 90 | 4.43 | 4.48 | –
29 | O=c1n(-c2ccc(C(F)(F)F)c(SCC(F)(F)F)c2)nc(OCC(F)(F)F)n1C1CC1 [Example 189] | – | – | – | – | 100 | 4.55 | 4.48 | –
30 | CCCSc1nn(-c2cc(SCC(F)(F)F)c(C)cc2F)c(=O)n1CC [Example 288] | – | – | – | – | 100 | 3.18 | 3.13 | –
31 | C=CCOc1nn(-c2cc(SCC(F)(F)F)c(C)cc2F)c(=O)n1C1CC1 [Example 375] | – | – | – | – | 100 | 3.74 | 3.70 | –
32 | Cc1cc(F)c(-n2nc(C3CC3)oc2=O)cc1SCC(F)(F)F [Example 456] | – | – | – | – | 100 | 3.62 | 3.55 | –
33 | Cc1cc(F)c(-n2nc(N(C)C)n(C)c2=O)cc1SCC(F)(F)F [Example 190] | – | – | – | – | 90 | 2.84 | 2.81 | –
34 | COCc1nn(-c2cc(SCC(F)(F)F)c(C)cc2F)c(=O)o1 [Example 450] | – | – | – | – | 100 | 3.18 | 3.15 | –
35 | O=c1n(-c2cc(SCC(F)(F)F)c(Cl)cc2Cl)nc(OCC(F)(F)F)n1C1CC1 [Example 185] | – | – | – | – | 90 | 4.14 | 4.10 | –
36 | Cc1cc(F)c(-n2nc(C3CCCC3)n(C3CC3)c2=O)cc1SCC(F)(F)F [Example 358, 5-Cyclopentyl-4-cyclopropyl-2-{2-fluoro-4-methyl-5-[(2,2,2-trifluoroethyl)sulphanyl]phenyl}-2,4-dihydro-3H-1,2,4-triazol-3-one] | 100 | 4.18 | 4.18 | 4.2 | – | – | – | –
37 | Cc1cc(F)c(-n2nc(C(F)(F)F)n(C)c2=O)cc1[S+]([O-])CC(F)(F)F (stereo not drawn) [Example 12, 2-{2-Fluoro-4-methyl-5-[(2,2,2-trifluoroethyl)sulphinyl]phenyl}-4-methyl-5-(trifluoromethyl)-2,4-dihydro-3H-1,2,4-triazol-3-one] | 100 | 2.52 | 2.52 | 2.46 | – | – | – | –
38 | COC1=CC(=O)N(c2cc(SCC(F)(F)F)c(Cl)cc2F)C1 [Example 327] | – | – | – | – | 90 | 2.97 | 2.92 | –
39 | Cc1cc(F)c(-n2nc(C(F)(F)F)n(C3CC3)c2=O)cc1SCC(F)(F)F [Example 59] | – | – | – | – | 100 | 3.97 | 3.91 | –
40 | CCCCOc1nn(-c2ccc(C)c(SCC(F)(F)F)c2)c(=O)n1C1CC1 [Example 126] | – | – | – | – | 90 | 5.11 | 5.02 | –
41 | Cc1cc(F)c(-n2nc(OC(C)(C)C)n(C)c2=O)cc1[S+]([O-])CC(F)(F)F (stereo not drawn) [Example 184] | – | – | – | – | 100 | 2.82 | 2.76 | –
42 | Cc1cc(F)c(-n2nc(-c3ccccc3)oc2=O)cc1SCC(F)(F)F [Example 457] | – | – | – | – | 90 | 4.35 | 4.29 | –
43 | Cc1cc(F)c(-n2ncn(C3CC3)c2=O)cc1[S+]([O-])CC(F)(F)F (racemic) [Example 62] | – | – | – | – | – | 1.69 | 1.69 | 100
